Test results from US9187472B2 (AbbVie Inc., priority 2012, dated 2015).

How the values were obtained:
[1] = target: NAMPT (human, recombinant, C-terminally His-tagged) (Homo sapiens, UniProt P43490); assay: Time-Resolved Fluorescence Resonance Energy Transfer (TR-FRET) Binding Assay of NAMPT; conditions: without substrates; 6.8 nM NAMPT, 200 nM probe, 3 hours equilibration
In short: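 In a displacement format, the nicotinamide-site tracer at 200 nM competed with test compound for 6.8 nM enzyme detected via 1 nM terbium anti-His antibody; incubation lasted 3 hours at room temperature in 50 mM HEPES pH 7.5, 100 mM NaCl. Normalized 520/495 nm emission ratios gave IC50 values.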

PC3 cells = assay: NAMPT Cell Proliferation Assay; format: cell-based; conditions: Homo sapiens, PC-3, 120 h, 5 days incubation, cell viability by Cell Titer Glo
In short: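 PC3 cells were plated at 500 cells/well in RPMI with 10% heat-inactivated FBS, left to attach overnight, then given compounds in 10-fold dilutions from 10 μM to 1×10^−5 μM. After 5 days at 37° C and 5% CO2, viability was read by luminescence and IC50s came from sigmoidal fits of percent inhibition.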

NAMPT = NAMPT (Homo sapiens, UniProt P43490); assay: TR-FRET Binding Assay of NAMPT with PRPP; conditions: with 200 μM PRPP and 2.5 mM ATP; 2 nM NAMPT, 2 nM probe, 16 hours equilibration
Chain of NAMPT (P43490 whole entry): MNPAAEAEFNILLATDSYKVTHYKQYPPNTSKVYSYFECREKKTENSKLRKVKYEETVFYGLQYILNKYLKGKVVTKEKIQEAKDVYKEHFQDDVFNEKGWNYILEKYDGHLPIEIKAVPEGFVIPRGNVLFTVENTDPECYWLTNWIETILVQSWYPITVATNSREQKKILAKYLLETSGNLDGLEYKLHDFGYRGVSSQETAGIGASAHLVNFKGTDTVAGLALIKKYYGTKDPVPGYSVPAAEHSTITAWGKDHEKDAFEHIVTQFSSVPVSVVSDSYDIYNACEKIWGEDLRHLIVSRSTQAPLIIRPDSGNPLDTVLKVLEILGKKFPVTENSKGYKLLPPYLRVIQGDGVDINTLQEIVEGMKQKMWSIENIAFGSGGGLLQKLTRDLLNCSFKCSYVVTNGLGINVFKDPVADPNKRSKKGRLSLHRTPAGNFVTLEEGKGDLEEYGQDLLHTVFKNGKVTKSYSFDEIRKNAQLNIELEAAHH
In short: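 Substrate-containing variant: 200 μM PRPP plus 2.5 mM ATP are added to 2 nM NAMPT and 2 nM probe, with a 16-hour incubation ahead of TR-FRET reading.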

Chain of NAMPT (human, recombinant, C-terminally His-tagged) (P43490 whole entry): as above

| IC50 [1] | IC50 (PC3 cells) | IC50 (NAMPT) | SMILES |
| --- | --- | --- | --- |
| 31.6 nM | 36.7 nM | 0.282 nM | O=C(CC1CCCC1)Nc1ccc(NC(=O)Nc2ccc3nccn3c2)cc1 [Example 3, 2-cyclopentyl-N-{4-[(imidazo[1,2-a]pyridin-6-ylcarbamoyl)amino]phenyl}acetamide] |
| > 10000 nM | 5320 nM | 0.169 nM | CN1CCC(C(=O)Nc2ccc(NC(=O)Nc3ccc4nccn4c3)cc2)CC1 [Example 48] |
| 84.1 nM | 17.3 nM | 0.259 nM | CC[C@H](C)C(=O)N1CCC(c2ccc(NC(=O)NCc3ccn4ccnc4c3)cc2)C1 (stereo partly drawn) [Example 381] |
| 306 nM | 29.5 nM | 0.169 nM | O=C(NCc1ccn2ccnc2c1)c1ccc(C2CCN(C(=O)[C@H]3CCOC3)CC2)cc1 [Example 308, N-(imidazo[1,2-a]pyridin-7-ylmethyl)-4-{1-[(3S)-tetrahydrofuran-3-ylcarbonyl]piperidin-4-yl}benzamide] |
| 68 nM | 8.9 nM | 0.169 nM | CC[C@H](C)C(=O)N1CC[C@H](Oc2ccc(NC(=O)NCc3ccn4ccnc4c3)cc2)C1 [Example 328, 1-(imidazo[1,2-a]pyridin-7-ylmethyl)-3-[4-({(3S)-1-[(2S)-2-methylbutanoyl]pyrrolidin-3-yl]oxy)phenyl}urea] |
| 1640 nM | 6140 nM | 0.817 nM | O=C(Nc1ccc(NC(=O)C2COCCO2)cc1)Nc1ccc2nccn2c1 (stereo not drawn) [Example 50] |
| 3160 nM | 1130 nM | 0.792 nM | CC[C@H](C)C(=O)N1CC[C@H](Oc2ccc(C(=O)NCc3ccn4ccnc4c3)cc2)C1 [Example 321, N-(imidazo[1,2-a]pyridin-7-ylmethyl)-4-({(3S)-1-[(2S)-2-methylbutanoyl]pyrrolidin-3-yl}oxy)benzamide] |
| 294 nM | 7.2 nM | 0.169 nM | CC(C)(O)C(=O)N1CCC(c2ccc(C(=O)NCc3ccn4ccnc4c3)cc2)CC1 [Example 230, 4-[1-(2-hydroxy-2-methylpropanoyl)piperidin-4-yl]-N-(imidazo[1,2-a]pyridin-7-ylmethyl)benzamide] |
| 77.6 nM | 3.04 nM | 0.202 nM | CC(C)C(C)C(=O)N1CCC(c2ccc(C(=O)NCc3ccn4ccnc4c3)cc2)CC1 (stereo not drawn) [Example 536, 4-[1-(2,3-dimethylbutanoyl)piperidin-4-yl]-N-(imidazo[1,2-a]pyridin-7-ylmethyl)benzamide] |
| 113 nM | 32.5 nM | 0.558 nM | CC(=O)N1CCC(c2ccc(C(=O)NCc3ccn4ccnc4c3)s2)CC1 [Example 258, 5-(1-acetylpiperidin-4-yl)-N-(imidazo[1,2-a]pyridin-7-ylmethyl)thiophene-2-carboxamide] |
| 65.9 nM | 3.49 nM | 0.771 nM | O=C(NCc1ccn2ccnc2c1)Nc1ccc(C2CCN(C(=O)C3CCC(F)(F)CC3)CC2)cc1 [Example 715, 1-(4-{1-[(4,4-difluorocyclohexyl)carbonyl]piperidin-4-yl}phenyl)-3-(imidazo[1,2-a]pyridin-7-ylmethyl)urea] |
| 290 nM | 14.2 nM | 0.593 nM | O=C(NCc1ccc2nccn2c1)c1ccc(C2=CCN(C(=O)CC3CCOC3)CC2)cc1 (stereo not drawn) [Example 94, N-(imidazo[1,2-a]pyridin-6-ylmethyl)-4-[1-(tetrahydrofuran-3-ylacetyl)-1,2,3,6-tetrahydropyridin-4-yl]benzamide] |
| 404 nM | 102 nM | 0.169 nM | CCC(C)CNC(=O)c1ccc(NC(=O)Nc2ccc3nccn3c2)cc1 (stereo not drawn) [Example 20, 4-[(imidazo[1,2-a]pyridin-6-ylcarbamoyl)amino]-N-(2-methylbutyl)benzamide] |

The next lines start with the molecule.

| SMILES | IC50 [1] | IC50 (PC3 cells) | IC50 (NAMPT) |
| --- | --- | --- | --- |
| O=C(NCc1ccn2ccnc2c1)c1ccc(-c2cnn(CC3CCC3)c2)o1 [Example 481, 5-[1-(cyclobutylmethyl)-1H-pyrazol-4-yl]-N-(imidazo[1,2-a]pyridin-7-ylmethyl)furan-2-carboxamide] | 57.2 nM | 5.79 nM | 0.176 nM |
| O=C(NCc1ccn2ccnc2c1)c1ccc(C2CCN(C(=O)c3cccc(C(F)(F)F)c3)C2)cc1 (stereo not drawn) [Example 620, N-(imidazo[1,2-a]pyridin-7-ylmethyl)-4-{1-[3-(trifluoromethyl)benzoyl]pyrrolidin-3-yl}benzamide] | 710 nM | 131 nM | 1 nM |
| Cc1ccccc1C(=O)N1CCC(c2ccc(C(=O)NCc3ccn4ccnc4c3)cc2)C1 (stereo not drawn) [Example 595, N-(imidazo[1,2-a]pyridin-7-ylmethyl)-4-[1-(2-methylbenzoyl)pyrrolidin-3-yl]benzamide] | 133 nM | 6.93 nM | 0.746 nM |
| O=C(NCc1ccc2nccn2c1)c1cnc(N(CC2CCCO2)C(=O)Cc2nnn[nH]2)s1 (stereo not drawn) [Example 132, N-(imidazo[1,2-a]pyridin-6-ylmethyl)-2-[(tetrahydrofuran-2-ylmethyl)(1H-tetrazol-5-ylacetyl)amino]-1,3-thiazole-5-carboxamide] | 155 nM | 523 nM | 13.3 nM |
| CCC(C)CC(=O)N1CC(c2ccc(C(=O)NCc3ccn4ccnc4c3)cc2)C1 (stereo not drawn) [Example 630, N-(imidazo[1,2-a]pyridin-7-ylmethyl)-4-[1-(3-methylpentanoyl)azetidin-3-yl]benzamide] | 266 nM | 40.4 nM | 0.563 nM |
| C[C@@H](O)Cn1cc(-c2ccc(C(=O)NCc3ccn4ccnc4c3)s2)cn1 [Example 304, 5-{1-[(2R)-2-hydroxypropyl]-1H-pyrazol-4-yl}-N-(imidazo[1,2-a]pyridin-7-ylmethyl)thiophene-2-carboxamide] | 66.2 nM | 18.8 nM | 0.169 nM |
| Cc1ncc(CC(=O)N(CC2CCCO2)c2ncc(C(=O)NCc3ccc4nccn4c3)s2)s1 (stereo not drawn) [Example 123, N-(imidazo[1,2-a]pyridin-6-ylmethyl)-2-{[(2-methyl-1,3-thiazol-5-yl)acetyl](tetrahydrofuran-2-ylmethyl)amino}-1,3-thiazole-5-carboxamide] | 133 nM | 7.43 nM | 2.57 nM |
| O=C(NCc1ccn2ccnc2c1)c1ccc(C2CCN(C(=O)CC3CCOCC3)CC2)s1 [Example 262, N-(imidazo[1,2-a]pyridin-7-ylmethyl)-5-[1-(tetrahydro-2H-pyran-4-ylacetyl)piperidin-4-yl]thiophene-2-carboxamide] | 3.67 nM | 1.87 nM | 0.221 nM |
| CC(C)(C)CC(=O)N1CCC(c2ccc(C(=O)NCc3ccn4ccnc4c3)cc2)C1 (stereo not drawn) [Example 602, 4-[1-(3,3-dimethylbutanoyl)pyrrolidin-3-yl]-N-(imidazo[1,2-a]pyridin-7-ylmethyl)benzamide] | 786 nM | 48.6 nM | 0.887 nM |
| O=C(NCc1ccn2ccnc2c1)c1ccc(C2CN(C(=O)c3ccoc3)C2)cc1 [Example 662, 4-[1-(furan-3-ylcarbonyl)azetidin-3-yl]-N-(imidazo[1,2-a]pyridin-7-ylmethyl)benzamide] | 318 nM | 93.4 nM | 0.671 nM |
| CC(C)Cn1cc(-c2ccc(C(=O)NCc3ccn4ncnc4c3)s2)cn1 [Example 497, 5-[1-(2-methylpropyl)-1H-pyrazol-4-yl]-N-([1,2,4]triazolo[1,5-a]pyridin-7-ylmethyl)thiophene-2-carboxamide] | 24.2 nM | 742 nM | 2.86 nM |
| O=C(CC(F)(F)F)NC1(c2ccc(C(=O)NCc3ccn4ccnc4c3)s2)CCC1 [Example 472, N-(imidazo[1,2-a]pyridin-7-ylmethyl)-5-{1-[(3,3,3-trifluoropropanoyl)amino]cyclobutyl}thiophene-2-carboxamide] | 2860 nM | 963 nM | 0.334 nM |
| O=C(NCc1ccn2ccnc2c1)c1ccc(N2CC(CO)OC2=O)s1 (stereo not drawn) [Example 266, 5-[5-(hydroxymethyl)-2-oxo-1,3-oxazolidin-3-yl]-N-(imidazo[1,2-a]pyridin-7-ylmethyl)thiophene-2-carboxamide] | 120 nM | 606 nM | 0.333 nM |
| O=C(NCc1ccn2ccnc2c1)c1ccc(C2CCN(C(=O)c3ccccc3Cl)C2)cc1 (stereo not drawn) [Example 594, 4-[1-(2-chlorobenzoyl)pyrrolidin-3-yl]-N-(imidazo[1,2-a]pyridin-7-ylmethyl)benzamide] | 22.7 nM | 1.11 nM | 0.682 nM |
| O=C(NCc1ccn2ccnc2c1)c1ccc(C2CCN(C(=O)c3ccncc3)C2)cc1 (stereo not drawn) [Example 608, N-(imidazo[1,2-a]pyridin-7-ylmethyl)-4-[1-(pyridin-4-ylcarbonyl)pyrrolidin-3-yl]benzamide] | 481 nM | 148 nM | 0.51 nM |
| CC(C)C(=O)N1CCC(c2ccc(C(=O)NCc3ccn4ccnc4c3)s2)C1 (stereo not drawn) [Example 541, N-(imidazo[1,2-a]pyridin-7-ylmethyl)-5-[1-(2-methylpropanoyl)pyrrolidin-3-yl]thiophene-2-carboxamide] | 175 nM | 64.5 nM | 0.448 nM |
